Tested on: human C3A liver cells
Assay: Microarray differential gene expression in human C3A liver cell cultures treated with steroids
Format: cell-based
Description: Incyte clones represent template sequences derived from the LWESEQ GOLD assembled human sequence database (Incyte Genomics). In cases where more than one clone was available for a particular template, the 5′-most clone in the template was used on the microarray. The HUMAN GENOME GEM series 1-4 microarrays (Incyte Genomics) contain 28,626 array elements which represent 10,068 annotated clusters and 18,558 unannotated clusters. For the UNIGEM series microarrays (Incyte Genomics), Incyte clones were mapped to non-redundant Unigene clusters (Unigene database (build 46), NCBI; Shuler (1997) J Mol Med 75:694-698), and the 5′ clone with the strongest BLAST alignment (at least 90% identity and 100 bp overlap) was chosen, verified, and used in the construction of the microarray. The UNIGEM V microarray (Incyte Genomics) contains 7075 array elements which represent 4610 annotated genes and 2,184 unannotated clusters.
To construct microarrays, cDNAs were amplified from bacterial cells using primers complementary to vector sequences flanking the cDNA insert. […] Amplified cDNAs were then purified using […]-400 columns (APB). Purified cDNAs were immobilized on polymer-coated glass slides. Glass microscope slides (Corning, Corning N.Y.) were cleaned by ultrasound in 0.1% SDS and acetone, with extensive distilled water washes between and after treatments. Glass slides were etched in 4% hydrofluoric acid (VWR Scientific Products, West Chester Pa.), washed thoroughly in distilled water, and coated with 0.05% aminopropyl silane (Sigma Aldrich) in 95% ethanol. Coated slides were cured in a 110° C. oven. cDNAs were applied to the coated glass substrate using a procedure described in U.S. Pat. No. 5,807,522. One microliter of the cDNA at an average concentration of 100 ng/μl was loaded into the open capillary printing element by a high-speed robotic apparatus which then deposited about 5 nl of cDNA per slide.
Microarrays were UV-crosslinked using a […] UV-crosslinker (Stratagene), and then washed at room temperature once in 0.2% SDS and three times in distilled water. Non-specific binding sites were blocked by incubation of microarrays in 0.2% casein in phosphate buffered saline (Tropix, Bedford Mich.) for 30 minutes at 60° C. followed by washes in 0.2% SDS and distilled water as before.
In all cases, mRNA from untreated early confluent C3A cells were prepared in parallel as described below.
Cells were harvested and lysed in 1 ml of TRIZOL reagent (5×10^6 cells/ml; Life Technologies). Lysates were vortexed thoroughly, incubated at room temperature for 2-3 minutes, and extracted with 0.5 ml chloroform. The extract was mixed, incubated at room temperature for 5 minutes, and centrifuged at 15,000 rpm for 15 minutes at 4° C. The aqueous layer was collected, and an equal volume of isopropanol was added. Samples were mixed, incubated at room temperature for 10 minutes, and centrifuged at 15,000 rpm for 20 minutes at 4° C. The supernatant was removed, and the RNA pellet was washed with 1 ml of 70% ethanol, centrifuged at 15,000 rpm at 4° C., and resuspended in RNAse-free water. The concentration of the RNA was determined by measuring the optical density at 260 nm.
Poly(A) RNA was prepared using an OLIGOTEX mRNA kit (Qiagen) with the following modifications: OLIGOTEX beads were washed in tubes instead of on spin columns, resuspended in elution buffer, and then loaded onto spin columns to recover mRNA. To obtain maximum yield, the mRNA was eluted twice.
Each poly(A) RNA sample was reverse transcribed using MMLV reverse-transcriptase, 0.05 pg/μl oligo-d(T) primer (21mer), 1× first strand buffer, 0.03 units/ul RNAse inhibitor, 500 uM dATP, 500 uM dGTP, 500 uM dTTP, 40 uM dCTP, and 40 uM either dCTP-Cy3 or dCTP-Cy5 (APB).

`C[C@@H]1C[C@H]2[C@@H]3CCC4=CC(=O)C=C[C@]4(C)[C@@]3(F)[C@@H](O)C[C@]2(C)[C@@]1(O)C(=O)CO` [dexamethasone] was tested, and the “Ave DE [log2] (C3A treated with steroid)” value (Clone ID 167081) was −1.10 log2, the “Ave DE [log2] (C3A treated with steroid)” value (Clone ID 220378) was 0.39 log2 and the “Ave DE [log2] (C3A treated with steroid)” value (Clone ID 380006) was −0.98 log2. For the same molecule, the “Ave DE [log2] (C3A treated with steroid)” value (Clone ID 419492) was 1.08 log2, the “Ave DE [log2] (C3A treated with steroid)” value (Clone ID 494905) was 0.75 log2 and the “Ave DE [log2] (C3A treated with steroid)” value (Clone ID 508943) was −1.26 log2. For the same molecule, the “Ave DE [log2] (C3A treated with steroid)” value (Clone ID 869702) was 0.55 log2, the “Ave DE [log2] (C3A treated with steroid)” value (Clone ID 1259841) was 0.84 log2 and the “Ave DE [log2] (C3A treated with steroid)” value (Clone ID 1275616) was 0.97 log2. For the same molecule, the “Ave DE [log2] (C3A treated with steroid)” value (Clone ID 1323616) was 0.89 log2, the “Ave DE [log2] (C3A treated with steroid)” value (Clone ID 1500810) was −0.70 log2 and the “Ave DE [log2] (C3A treated with steroid)” value (Clone ID 1501410) was −1.16 log2. For the same molecule, the “Ave DE [log2] (C3A treated with steroid)” value (Clone ID 1573840) was 0.86 log2, the “Ave DE [log2] (C3A treated with steroid)” value (Clone ID 1823946) was −1.20 log2 and the “Ave DE [log2] (C3A treated with steroid)” value (Clone ID 1857664) was −0.71 log2. The “Ave DE [log2] (C3A treated with steroid)” value (Clone ID 1876829) was −0.94 log2, the “Ave DE [log2] (C3A treated with steroid)” value (Clone ID 1930847) was −0.67 log2 and the “Ave DE [log2] (C3A treated with steroid)” value (Clone ID 1946155) was 0.93 log2. For the same molecule, the “Ave DE [log2] (C3A treated with steroid)” value (Clone ID 2025128) was 0.90 log2, the “Ave DE [log2] (C3A treated with steroid)” value (Clone ID 2086783) was −1.18 log2 and the “Ave DE [log2] (C3A treated with steroid)” value (Clone ID 2088104) was −1.20 log2. The “Ave DE [log2] (C3A treated with steroid)” value (Clone ID 2095329) was −1.37 log2, the “Ave DE [log2] (C3A treated with steroid)” value (Clone ID 2173002) was 0.75 log2 and the “Ave DE [log2] (C3A treated with steroid)” value (Clone ID 2253102) was −1.20 log2. The “Ave DE [log2] (C3A treated with steroid)” value (Clone ID 2269058) was −1.15 log2, the “Ave DE [log2] (C3A treated with steroid)” value (Clone ID 2285181) was −1.27 log2 and the “Ave DE [log2] (C3A treated with steroid)” value (Clone ID 2285521) was −1.22 log2. For the same molecule, the “Ave DE [log2] (C3A treated with steroid)” value (Clone ID 2287703) was −1.24 log2, the “Ave DE [log2] (C3A treated with steroid)” value (Clone ID 2287724) was −1.16 log2 and the “Ave DE [log2] (C3A treated with steroid)” value (Clone ID 2293496) was −0.82 log2. For the same molecule, the “Ave DE [log2] (C3A treated with steroid)” value (Clone ID 2294968) was −0.94 log2, the “Ave DE [log2] (C3A treated with steroid)” value (Clone ID 2655279) was −1.21 log2 and the “Ave DE [log2] (C3A treated with steroid)” value (Clone ID 2698777) was −1.48 log2. For the same molecule, the “Ave DE [log2] (C3A treated with steroid)” value (Clone ID 2703282) was −0.86 log2, the “Ave DE [log2] (C3A treated with steroid)” value (Clone ID 2947188) was −0.98 log2 and the “Ave DE [log2] (C3A treated with steroid)” value (Clone ID 3057272) was 0.98 log2. For the same molecule, the “Ave DE [log2] (C3A treated with steroid)” value (Clone ID 3115505) was −1.10 log2, the “Ave DE [log2] (C3A treated with steroid)” value (Clone ID 3139631) was −0.82 log2 and the “Ave DE [log2] (C3A treated with steroid)” value (Clone ID 3973887) was −1.06 log2. The “Ave DE [log2] (C3A treated with steroid)” value (Clone ID 4089291) was −0.77 log2, the “Ave DE [log2] (C3A treated with steroid)” value (Clone ID 4284270) was −0.88 log2 and the “Ave DE [log2] (C3A treated with steroid)” value (Clone ID 4377432) was 0.87 log2. For the same molecule, the “Ave DE [log2] (C3A treated with steroid)” value (Clone ID 4884214) was −0.77 log2, the “Ave DE [log2] (C3A treated with steroid)” value (Clone ID 5091002) was −1.42 log2 and the “Ave DE [log2] (C3A treated with steroid)” value (Clone ID 5206821) was 0.17 log2. The “Ave DE [log2] (C3A treated with steroid)” value (Clone ID 5426158) was −1.03 log2.
In the case of `C[C@@H]1C[C@H]2[C@@H]3CCC4=CC(=O)C=C[C@]4(C)[C@@]3(F)[C@@H](O)C[C@]2(C)[C@@]1(O)C(=O)CO` [dexomethasone], the “Ave DE [log2] (C3A treated with steroid)” value (Clone ID 2947188) is reported as −0.98 log2.
`C#C[C@]1(O)CC[C@H]2[C@@H]3CCC4=Cc5oncc5C[C@]4(C)[C@H]3CC[C@@]21C` [donozol] was tested, and the “Ave DE [log2] (C3A treated with steroid)” value (Clone ID 2407620) was −0.26 log2 and the “Ave DE [log2] (C3A treated with steroid)” value (Clone ID 3474091) was −0.29 log2.
For `C[C@]12C=CC(=O)C=C1CC[C@@H]1[C@@H]2C(=O)C[C@@]2(C)[C@H]1CC[C@]2(O)C(=O)CO` [prednisone], the “Ave DE [log2] (C3A treated with steroid)” value (Clone ID 998615) was 0.91 log2, the “Ave DE [log2] (C3A treated with steroid)” value (Clone ID 1329625) was 0.42 log2 and the “Ave DE [log2] (C3A treated with steroid)” value (Clone ID 1401312) was −0.82 log2. The “Ave DE [log2] (C3A treated with steroid)” value (Clone ID 1496011) was 0.51 log2, the “Ave DE [log2] (C3A treated with steroid)” value (Clone ID 1611629) was 0.94 log2 and the “Ave DE [log2] (C3A treated with steroid)” value (Clone ID 1679595) was 0.99 log2. For the same molecule, the “Ave DE [log2] (C3A treated with steroid)” value (Clone ID 1716458) was 1.03 log2, the “Ave DE [log2] (C3A treated with steroid)” value (Clone ID 1740179) was 0.86 log2 and the “Ave DE [log2] (C3A treated with steroid)” value (Clone ID 1946155) was 0.92 log2. For the same molecule, the “Ave DE [log2] (C3A treated with steroid)” value (Clone ID 1951845) was 0.79 log2, the “Ave DE [log2] (C3A treated with steroid)” value (Clone ID 2086783) was −1.13 log2 and the “Ave DE [log2] (C3A treated with steroid)” value (Clone ID 2088104) was −1.15 log2. For the same molecule, the “Ave DE [log2] (C3A treated with steroid)” value (Clone ID 2095329) was −1.21 log2, the “Ave DE [log2] (C3A treated with steroid)” value (Clone ID 2227273) was 1.01 log2 and the “Ave DE [log2] (C3A treated with steroid)” value (Clone ID 2252884) was −1.03 log2. For the same molecule, the “Ave DE [log2] (C3A treated with steroid)” value (Clone ID 2253102) was −1.13 log2, the “Ave DE [log2] (C3A treated with steroid)” value (Clone ID 2269058) was −1.06 log2 and the “Ave DE [log2] (C3A treated with steroid)” value (Clone ID 2285521) was −1.09 log2. The “Ave DE [log2] (C3A treated with steroid)” value (Clone ID 2287703) was −1.07 log2, the “Ave DE [log2] (C3A treated with steroid)” value (Clone ID 2430165) was 0.23 log2 and the “Ave DE [log2] (C3A treated with steroid)” value (Clone ID 2607834) was 0.29 log2. For the same molecule, the “Ave DE [log2] (C3A treated with steroid)” value (Clone ID 2698777) was −1.25 log2, the “Ave DE [log2] (C3A treated with steroid)” value (Clone ID 2734007) was 0.88 log2 and the “Ave DE [log2] (C3A treated with steroid)” value (Clone ID 2908212) was 0.42 log2. For the same molecule, the “Ave DE [log2] (C3A treated with steroid)” value (Clone ID 3960194) was 1.01 log2, the “Ave DE [log2] (C3A treated with steroid)” value (Clone ID 4252872) was 0.77 log2 and the “Ave DE [log2] (C3A treated with steroid)” value (Clone ID 4543123) was 1.27 log2. The “Ave DE [log2] (C3A treated with steroid)” value (Clone ID 4630674) was 0.86 log2, the “Ave DE [log2] (C3A treated with steroid)” value (Clone ID 4894508) was −1.03 log2 and the “Ave DE [log2] (C3A treated with steroid)” value (Clone ID 5102951) was 0.85 log2. The “Ave DE [log2] (C3A treated with steroid)” value (Clone ID 5326983) was 0.50 log2 and the “Ave DE [log2] (C3A treated with steroid)” value (Clone ID 5543385) was 1.00 log2.
For `CC(=O)[C@H]1CC[C@H]2[C@@H]3CCC4=CC(=O)CC[C@]4(C)[C@H]3CC[C@]12C` [progesterone], the “Ave DE [log2] (C3A treated with steroid)” value (Clone ID 167081) was −1.12 log2, the “Ave DE [log2] (C3A treated with steroid)” value (Clone ID 1323327) was 0.83 log2 and the “Ave DE [log2] (C3A treated with steroid)” value (Clone ID 1600180) was 1.06 log2. For the same molecule, the “Ave DE [log2] (C3A treated with steroid)” value (Clone ID 1816768) was 0.28 log2, the “Ave DE [log2] (C3A treated with steroid)” value (Clone ID 2655279) was −1.03 log2 and the “Ave DE [log2] (C3A treated with steroid)” value (Clone ID 2753065) was 0.78 log2. For the same molecule, the “Ave DE [log2] (C3A treated with steroid)” value (Clone ID 3408804) was −1.16 log2, the “Ave DE [log2] (C3A treated with steroid)” value (Clone ID 3528232) was 0.99 log2 and the “Ave DE [log2] (C3A treated with steroid)” value (Clone ID 3876612) was 0.26 log2.

— patent US6673549B1, “Genes expressed in C3A liver cell cultures treated with steroids” (Incyte Corporation, priority 2000, dated 2004)
